Reference: patent publication US20250236614A1, “BICYCLIC TETRAHYDROAZEPINE DERIVATIVES” (Hoffmann-La Roche Inc., priority 2022, published 2025)

Assays:
[1] = test system: primary human T-cells; assay: IL2 secretion measurements in CD3-stimulated T-cells; type: cell-based; conditions: Homo sapiens, T-cell, isomer A; for EC50: CD3 antibody-stimulated T-cells, IL2 in supernatant after 24 hours, read-out: Tcell IL2 CD3 EC50; for Emax: CD3 condition, 24 hours, 20 μM reference compound A1 = 100%, DMSO neutral control, read-out: Emax IL2 (% activation)
Experimental: As readouts for T-cell activation, IL2 secretion after 24 hours and proliferation after 5 days was measured. Increases in IL2 secretion and proliferation upon compound treatment were assessed as the % of the maximum of reference compound A1. WO 2016/139181 discloses reference compound A1 as example 70. As a counter screen and to make sure that no unwanted TCR-independent activation was triggered, PBS conditions were run for all compounds.
Expanded primary human T-cells were thawed and cultured in RPMI 1640 (Gibco, #61870-010)+5% human serum (HS, Sigma, #H3667)+1 mM Sodium Pyruvate (Gibco, #11360-039)+50 μM 2-mercaptoethanol (Gibco, #31350-010) and lx Pen-Strep (Life Technologies, #15140122) medium at density of 2 Mio/ml for 3 hours in 5% CO2, 37° C. and 95% humidity. For coating of plates, […] or PBS++ with CD3 antibody (concentration depending on donor and determined by CD3 titrations) was added 100 μl/well to Poly-D Lysine coated 96-well plates. Plates were sealed and incubated at room temperature for 3 hours on a table-top rocking platform. After incubation, plates were washed once with PBS−− and filled with 40 μl/well culture medium only. Compounds were then added (see next section) to medium only plates. After 3 hours of culturing the T-cells, cells were filtered through a cell strainer (Miltenyi Biotech, #130-041-407), counted again and concentration was adjusted to 1.25 Mio/ml.
Cells were then seeded 80 μl/well to the 40 μl/well including dispensed compounds according to plate layout. By adding cells, compounds were further diluted 1:3, and resulting in 100k cells/120 μl/well. After 24 hours 40 μl of supernatant was collected carefully from the top while not disturbing the cells and transferred into a round bottom 96 well plate. Collected and frozen supernatant was used for detection of IL2 using the IL-2 Human ProQuantum Immunoassay Kit (Invitrogen) or using the Human IL-2 ELISA Kit (Thermo Fisher).
Compounds were added in a 5 or 6 pt dose response with the Tecan D300e Digital Dispenser, all conditions 3 times more concentrated than the end-concentration, since cells are added afterwards (80 μl cells to 40 μl prepared medium with treatment). The DR was starting at 20 μM or 10 μM final top concentration and a dilution factor of 3.333. The positive control was the reference compound A1 that was added in a dose response as well, additionally to 3 wells of only 20 μM representing the positive stimulator control. All wells were normalized with DMSO to a final concentration of 0.6% (0.2% end-concentration).
The immunoassay is done following the manufacturer's manual (Invitrogen, #A35603).
Additional information: For the immunoassay, MicroAmp™ EnduraPlate™ Optical 384-Well plates are used. Frozen supernatant is thawed and centrifuged for 5 minutes at 1000×g, both steps at 4° C. After centrifugation, required sample amount is taken from the top, and in a separate LightCycler V-bottom plate (working plate) diluted with assay dilution buffer, dilution factor depending on the PBS or CD3 condition but at least 1:3. IL-2 standard and blanks are prepared in the same V-bottom plate, standard with a range of […] (extended version). After preparation, […] of sample dilutions or standard/blanks are transferred to the optical 384-well plate (assay plate) and the 10 μl reaction protocol is being followed. For measurement, the QuantStudio 12K Flex system is used. Raw data is extracted and IL-2 concentrations are calculated with the Thermo Fisher online app (apps.thermofisher.com/apps/proquantum).
ELISA is done following the manufacturer's manual (Thermo Fisher Scientific, #88-7025-88).
Additional information: For the ELISA Nunc MaxiSorp 96 well plates are used. Frozen supernatant is thawed and centrifuged for 5 minutes at 1000×g, both steps at 4° C. After that, required sample amount is taken from the top, and in a separate V-bottom plate diluted with ELISA diluent, dilution factor depending on the PBS or CD3 condition. […]

[2] = target: DGK ζ kinase (Homo sapiens, UniProt Q13574); assay: In vitro DGK inhibition assay (ADP Glo) run by Reaction Biology Corp., DGK zeta; type: biochemical; conditions: isomer A, 2 nM kinase, 50 μM ATP, 500 uM DLG, 10-dose, 3-fold dilution starting at 1 μM, read-out: DGKzeta IC50
Experimental: DGK α and ζ kinase use ATP to phosphorylate the substrate 1,2-dilauroyl-sn-glycerol (DLG). ATP is converted to ADP as a result of this enzymatic reaction.
After the kinase reaction, an ATP-depletion reagent is added to terminate the kinase reaction and deplete any remaining ATP, leaving only ADP. Second, a detection reagent is added to simultaneously convert ADP to ATP and allow the newly synthesized ATP to be converted to light using a coupled luciferase/luciferin reaction.
DGK α and ζ kinase ADP Glo assays were ran by Reaction Biology Corp., 1 Great Valley Parkway, Suite 2, Malverm, 19355, PA, USA. Information provided by the service provider are the following: DGK α and ζ kinases were used at 2 nM final concentration. Reactions were carried out at 50 μM ATP. 500 uM of the substrate DLG (Dilauroyl-sn-glycerol) was used. Compounds were received at 10 mM DMSO stock solution and were tested in 10-dose IC50 duplicate with 3-fold serial dilution starting at 1 μM. A control compound, Calphostin C, was tested in 10-dose IC50 with 3-fold serial dilution starting at 100 μM.

[3] = target: T1, hDGKzeta(1-928)-N-His (DGKZ) (Homo sapiens, UniProt Q13574); assay: In vitro DGK inhibition assay (ADP-Glo, in house), DGK zeta; type: biochemical; conditions: isomer A; 2 nM DGK ζ, 50 μM ATP, 125 μM DLG in liposomes, 1 hour reaction; read-out: DGKzeta ADP Glo assay IC50
T1 construct: hDGKzeta(1-928)-N-His; His (N)
Outline: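 Sf21-expressed full-length His-tagged enzymes (DGKA 4 nM, DGKZ 2 nM) phosphorylated 125 μM DLG in PS/PC liposomes with ATP at 25 μM (DGKA) or 50 μM (DGKZ). After 1 h, ADP was measured by ADP-Glo luminescence. Compounds: 11-point 1:3 dilutions from 10 mM top concentration.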

Sequence of DGK ζ kinase (Q13574 whole entry): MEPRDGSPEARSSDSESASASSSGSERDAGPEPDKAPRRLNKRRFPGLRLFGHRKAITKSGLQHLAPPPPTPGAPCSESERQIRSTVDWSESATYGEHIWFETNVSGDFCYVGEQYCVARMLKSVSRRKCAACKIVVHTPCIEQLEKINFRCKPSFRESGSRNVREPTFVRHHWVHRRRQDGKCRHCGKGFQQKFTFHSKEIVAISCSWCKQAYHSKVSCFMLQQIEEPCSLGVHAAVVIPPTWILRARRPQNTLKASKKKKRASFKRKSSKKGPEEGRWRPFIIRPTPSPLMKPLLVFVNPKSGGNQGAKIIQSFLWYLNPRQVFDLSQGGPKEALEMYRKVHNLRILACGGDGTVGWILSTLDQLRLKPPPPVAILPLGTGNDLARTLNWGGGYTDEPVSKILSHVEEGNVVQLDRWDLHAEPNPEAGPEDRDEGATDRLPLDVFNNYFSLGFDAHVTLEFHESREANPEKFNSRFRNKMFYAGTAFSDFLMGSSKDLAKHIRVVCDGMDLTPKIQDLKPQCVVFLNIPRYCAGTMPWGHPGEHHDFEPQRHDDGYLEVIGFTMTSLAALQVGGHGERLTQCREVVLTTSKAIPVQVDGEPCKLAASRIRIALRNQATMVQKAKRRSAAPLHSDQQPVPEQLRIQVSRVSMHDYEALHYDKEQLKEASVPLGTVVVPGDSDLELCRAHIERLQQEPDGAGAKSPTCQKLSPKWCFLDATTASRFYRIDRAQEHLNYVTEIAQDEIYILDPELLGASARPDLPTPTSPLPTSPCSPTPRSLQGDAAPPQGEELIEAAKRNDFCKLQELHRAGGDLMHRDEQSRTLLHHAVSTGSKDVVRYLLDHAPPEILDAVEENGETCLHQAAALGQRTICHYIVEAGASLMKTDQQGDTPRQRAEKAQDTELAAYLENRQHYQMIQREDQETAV
T1 sequence (Q13574 whole entry): as above

EC50 [1] [nM] | IC50 [2] [nM] | IC50 [3] [nM] | Structure (SMILES) | Emax [1] [%]
378 | 1060 | 11500 | COc1ccc(-c2ccc(CN3C(=O)[C@H](N)CC(F)(F)c4cc(F)c(-c5nnc(C(C)(C)S(C)(=O)=O)o5)cc43)cc2)cc1 (single isomer, unassigned) [Example 10] | 57
367 | 73 | 2900 | CC(C)(C#N)c1nnc(-c2cc3c(cc2F)C(F)(F)C[C@@H](N)C(=O)N3Cc2ccc(-c3ccc(C(F)(F)F)cn3)cc2)o1 (single isomer, unassigned) [Example 12] | 67
457 | 136 | 2850 | CC(F)(F)c1ccc(-c2ccc(CN3C(=O)[C@H](N)CC(F)(F)c4cc(F)c(-c5nnc(C(C)(C)C#N)o5)cc43)cc2)nc1 (single isomer, unassigned) [Example 37] | 136
